The record followed here is US20160159789A1, “SUBSTITUTED PYRAZOLOPYRIDINES” (BAYER PHARMA AKTIENGESELLSCHAFT, priority 2013, published 2016).

T1 sequence (Q9BUB5 1-424 isoform Q9BUB5-2 T344D): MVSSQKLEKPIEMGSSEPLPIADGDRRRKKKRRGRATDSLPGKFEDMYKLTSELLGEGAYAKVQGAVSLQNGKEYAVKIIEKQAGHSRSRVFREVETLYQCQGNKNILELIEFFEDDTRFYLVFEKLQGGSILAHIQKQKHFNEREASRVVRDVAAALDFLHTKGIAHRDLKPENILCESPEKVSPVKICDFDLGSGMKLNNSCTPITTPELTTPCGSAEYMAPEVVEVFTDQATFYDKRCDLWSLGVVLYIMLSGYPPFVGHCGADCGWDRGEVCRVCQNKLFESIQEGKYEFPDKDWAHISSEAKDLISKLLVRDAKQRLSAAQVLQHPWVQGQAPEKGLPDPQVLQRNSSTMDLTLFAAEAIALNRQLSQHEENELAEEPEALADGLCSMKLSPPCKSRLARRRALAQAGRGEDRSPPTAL

This assay has as its target T1, human full-length MKNK1 (Homo sapiens, UniProt Q9BUB5, T385D).
T1 construct: purchased Carna Biosciences 02-145; host or cells: insect cells (baculovirus expression system)
The experiment in a line: MKNK1 kinase high ATP assay (TR-FRET). The format is biochemical. The following applies: high ATP (2 mM final), 15 min preincubation with enzyme, GST-MKNK1 (T344D). Here is the method: MKNK1-inhibitory activity at high ATP of compounds of the present invention after their preincubation with MKNK1 was quantified employing the TR-FRET-based MKNK1 high ATP assay as described in the following paragraphs.
A recombinant fusion protein of Glutathione-S-Transferase (GST, N-terminally) and human full-length MKNK1 (amino acids 1-424 and T344D of accession number BAA 19885.1), expressed in insect cells using baculovirus expression system and purified via glutathione sepharose affinity chromatography, was purchased from Carna Biosciences (product no 02-145) and used as enzyme. As substrate for the kinase reaction the biotinylated peptide biotin-Ahx-IKKRKLTRRKSLKG (C-terminus in amide form) was used, which can be purchased e.g. from the company Biosyntan (Berlin-Buch, Germany).
For the assay 50 nL of a 100 fold concentrated solution of the test compound in DMSO was pipetted into a black low volume 384 well microtiter plate (Greiner Bio-One, Frickenhausen, Germany), 2 μL of a solution of MKNK1 in aqueous assay buffer [50 mM HEPES pH 7.5, 5 mM MgCl2, 1.0 mM dithiothreitol, 0.005% (v/v) Nonidet-P40 (Sigma)] was added and the mixture was incubated for 15 min at 22° C. to allow pre-binding of the test compounds to the enzyme before the start of the kinase reaction. Then the kinase reaction was started by the addition of 3 μL of a solution of adenosine-tri-phosphate (ATP, 3.3 mM=> final conc. in the 5 μL assay volume is 2 mM) and substrate (0.1 μM=> final conc. in the 5 μL assay volume is 0.06 μM) in assay buffer and the resulting mixture was incubated for a reaction time of 30 min at 22° C. The concentration of MKNK1 was adjusted depending of the activity of the enzyme lot and was chosen appropriate to have the assay in the linear range, typical concentrations were in the range of 0.003 μg/mL. The reaction was stopped by the addition of 5 μL of a solution of TR-FRET detection reagents (5 nM streptavidine-XL665 [Cisbio Bioassays, Codolet, France] and 1 nM anti-ribosomal protein S6 (pSer236)-antibody from Invitrogen [#44921G] and 1 nM LANCE EU-W1024 labeled ProteinG [Perkin-Elmer, product no. AD0071]) in an aqueous EDTA-solution (100 mM EDTA, 0.1% (w/v) bovine serum albumin in 50 mM HEPES pH 7.5).
The resulting mixture was incubated for 1 h at 22° C. to allow the formation of complex between the phosphorylated biotinylated peptide and the detection reagents. Subsequently the amount of phosphorylated substrate was evaluated by measurement of the resonance energy transfer from the Eu-chelate to the streptavidine-XL. Therefore, the fluorescence emissions at 620 nm and 665 nm after excitation at 350 nm were measured in a TR-FRET reader, e.g. a Rubystar (BMG Labtechnologies, Offenburg, Germany) or a Viewlux (Perkin-Elmer). The ratio of the emissions at 665 nm and at […] was taken as the measure for the amount of phosphorylated substrate. The data were normalised (enzyme reaction without inhibitor=0% inhibition, all other assay components but no enzyme=100% inhibition).
(In TR-FRET formats the signal depends on donor and acceptor labels being close together.)
The term IC50 denotes the concentration needed to halve the response being measured. A high value points to lower potency. In turn, `O=C(c1nc2c(Nc3cnc4[nH]ncc4c3)ncnc2s1)N1CCCCC1` [Example 126, Piperidin-1-yl[7-(1H-pyrazolo[3,4-b]pyridin-5-ylamino)[1,3]thiazolo[5,4-d]pyrimidin-2-yl]methanone] came in with an IC50 of 171 nM.

Consider `CCCN(C)C(=O)[C@H]1CCc2c(sc3ncnc(Nc4cnc5[nH]ncc5c4)c23)C1` [Example 93, (7S)—N-Methyl-N-propyl-4-(1H-pyrazolo[3,4-b]pyridin-5-ylamino)-5,6,7,8-tetrahydro[1]benzothieno[2,3-d]pyrimidine-7-carboxamide], for which half-maximal inhibition (IC50) was put at 13.5 nM.

With `c1nc(Nc2cc3cn[nH]c3cn2)c2cc[nH]c2n1` [Example 2, N-(7H-Pyrrolo[2,3-d]pyrimidin-4-yl)-1H-pyrazolo[3,4-c]pyridin-5-amine], 23.8 nM corresponded to half-maximal inhibition (IC50).

The compound `CCOC(=O)c1cc2c(Nc3cc4cn[nH]c4cn3)ncnc2[nH]1` [Example 10, Ethyl 4-(1H-pyrazolo[3,4-c]pyridin-5-ylamino)-7H-pyrrolo[2,3-d]pyrimidine-6-carboxylate] returned a half-inhibitory concentration (IC50) of 6.6 nM.

Compound `CN(C)C(=O)[C@H]1CCc2c(sc3ncnc(Nc4cc5cn[nH]c5nc4O)c23)C1` [Example 54, (7S)-4-[(6-Hydroxy-1H-pyrazolo[3,4-b]pyridin-5-yl)amino]-N,N-dimethyl-5,6,7,8-tetrahydro[1]benzothieno[2,3-d]pyrimidine-7-carboxamide] showed an IC50 of 6.9 nM.

The compound `CN(C)C1CCN(C(=O)c2[nH]c3ncnc(Nc4cnc5[nH]ncc5c4)c3c2Br)CC1` [Example 127, [5-Bromo-4-(1H-pyrazolo[3,4-b]pyridin-5-ylamino)-7H-pyrrolo[2,3-d]pyrimidin-6-yl][4-(dimethylamino)piperidin-1-yl]methanone] showed an IC50 of 76.8 nM.

Take `CN1CCN(C(=O)[C@H]2CCc3c(sc4ncnc(Nc5cc6cn[nH]c6nc5O)c34)C2)CC1` [Example 116]: the IC50 amounted to 2.1 nM.

`CC(C)N(C)C(=O)[C@H]1CCc2c(sc3ncnc(Nc4cnc5[nH]ncc5c4)c23)C1` [Example 95, (7S)—N-Methyl-N-(propan-2-yl)-4-(1H-pyrazolo[3,4-b]pyridin-5-ylamino)-5,6,7,8-tetrahydro[1]benzothieno[2,3-d]pyrimidine-7-carboxamide] showed an IC50 of 18 nM.

Compound `CN(C)C(=O)[C@H]1CCc2c(sc3ncnc(Nc4cnc5[nH]ncc5c4)c23)C1` [Example 59, (7S)—N,N-Dimethyl-4-(1H-pyrazolo[3,4-b]pyridin-5-ylamino)-5,6,7,8-tetrahydro[1]benzothieno[2,3-d]pyrimidine-7-carboxamide] came in with an IC50 of 2.3 nM.

Take `COc1nc2[nH]ncc2cc1Nc1ncnc2sc3c(c12)CC[C@H](C(=O)N1CC(C#N)C1)C3` [Example 108, 1-({(7S)-4-[(6-Methoxy-1H-pyrazolo[3,4-b]pyridin-5-yl)amino]-5,6,7,8-tetrahydro[1]benzothieno[2,3-d]pyrimidin-7-yl}carbonyl)azetidine-3-carbonitrile]: the half-maximal inhibitory concentration (IC50) was 0.7 nM.

`COc1nc2[nH]ncc2cc1Nc1ncnc2sc3c(c12)CC[C@H](C(=O)N1C[C@@H]2C[C@H]1CO2)C3` [Example 40]: it took 2.5 nM to reach half-maximal inhibition (IC50).

`CCN(C)C(=O)[C@H]1CCc2c(sc3ncnc(Nc4cc5cn[nH]c5cn4)c23)C1` [Example 58, (7S)—N-Ethyl-N-methyl-4-(1H-pyrazolo[3,4-c]pyridin-5-ylamino)-5,6,7,8-tetrahydro[1]benzothieno[2,3-d]pyrimidine-7-carboxamide] registered an IC50 of 17.3 nM.

Take `COCCN(C)C(=O)[C@H]1CCc2c(sc3ncnc(Nc4cc5cn[nH]c5cn4)c23)C1` [Example 57, (7S)—N-(2-Methoxyethyl)-N-methyl-4-(1H-pyrazolo[3,4-c]pyridin-5-ylamino)-5,6,7,8-tetrahydro[1]benzothieno[2,3-d]pyrimidine-7-carboxamide]: it took 15 nM to reach half-maximal inhibition (IC50).

`CCN(C(=O)[C@H]1CCc2c(sc3ncnc(Nc4cc5cn[nH]c5cn4)c23)C1)C(C)C` [Example 46, (7S)—N-Ethyl-N-(propan-2-yl)-4-(1H-pyrazolo[3,4-c]pyridin-5-ylamino)-5,6,7,8-tetrahydro[1]benzothieno[2,3-d]pyrimidine-7-carboxamide] gave an IC50 of 4.9 nM.

The compound `COc1nc2[nH]ncc2cc1Nc1ncnc2sc3c(c12)CC[C@H](C(=O)N(C)C)C3` [Example 53, (7S)-4-[(6-Methoxy-1H-pyrazolo[3,4-b]pyridin-5-yl)amino]-N,N-dimethyl-5,6,7,8-tetrahydro[1]benzothieno[2,3-d]pyrimidine-7-carboxamide] gave an IC50 of 0.5 nM.

For the compound `C[C@H]1COCCN1C(=O)[C@H]1CCc2c(sc3ncnc(Nc4cnc5[nH]ncc5c4)c23)C1` [Example 104, [(3S)-3-Methylmorpholin-4-yl][(7S)-4-(1H-pyrazolo[3,4-b]pyridin-5-ylamino)-5,6,7,8-tetrahydro[1]benzothieno[2,3-d]pyrimidin-7-yl]methanone], the concentration for half-maximal inhibition (IC50) was 28.7 nM.

For the compound `CN(C)CCCNC(=O)c1[nH]c2ncnc(Nc3cnc4[nH]ncc4c3)c2c1Br` [Example 125, 5-Bromo-N-[3-(dimethylamino)propyl]-4-(1H-pyrazolo[3,4-b]pyridin-5-ylamino)-7H-pyrrolo[2,3-d]pyrimidine-6-carboxamide], the 50% inhibitory concentration (IC50) was determined as 29.2 nM.

The compound `COc1nc2[nH]ncc2cc1Nc1ncnc2sc3c(c12)CC[C@H](C(=O)N1CCOCC1)C3` [Example 34] returned an IC50 of 2.5 nM.

The compound `CN(C)C(=O)C1CCc2c(sc3ncnc(Nc4cnc5[nH]ncc5c4)c23)C1` (racemic) [Example 27, (RS)—N,N-Dimethyl-4-(1H-pyrazolo[3,4-b]pyridin-5-ylamino)-5,6,7,8-tetrahydro[1]benzothieno[2,3-d]pyrimidine-7-carboxamide] came in with a half-inhibitory concentration (IC50) of 20.3 nM.

As to `CN(CCC(F)(F)F)C(=O)[C@H]1CCc2c(sc3ncnc(Nc4cc5cn[nH]c5cn4)c23)C1` [Example 48, (7S)—N-Methyl-4-(1H-pyrazolo[3,4-c]pyridin-5-ylamino)-N-(3,3,3-trifluoropropyl)-5,6,7,8-tetrahydro[1]benzothieno[2,3-d]pyrimidine-7-carboxamide], the IC50 was 6.2 nM.

The compound `O=C(c1cc2c(Nc3cc4cn[nH]c4cn3)ncnc2[nH]1)N1CCCC1` [Example 19, [4-(1H-Pyrazolo[3,4-c]pyridin-5-ylamino)-7H-pyrrolo[2,3-d]pyrimidin-6-yl](pyrrolidin-1-yl)methanone] returned a half-maximal inhibitory concentration (IC50) of 5.8 nM.

Consider `CN1CCN(C(=O)C2CCc3[nH]c4ncnc(Nc5cnc6[nH]ncc6c5)c4c3C2)CC1` (racemic) [Example 32, (RS)-(4-Methylpiperazin-1-yl)[4-(1H-pyrazolo[3,4-b]pyridin-5-ylamino)-6,7,8,9-tetrahydro-5H-pyrimido[4,5-b]indol-6-yl]methanone], for which the 50% inhibitory concentration (IC50) amounted to 49 nM.

`N#CC1CN(C(=O)[C@H]2CCc3c(sc4ncnc(Nc5cnc6[nH]ncc6c5)c34)C2)C1` [Example 99, 1-{[(7S)-4-(1H-Pyrazolo[3,4-b]pyridin-5-ylamino)-5,6,7,8-tetrahydro[1]benzothieno[2,3-d]pyrimidin-7-yl]carbonyl}azetidine-3-carbonitrile] registered an IC50 of 14.5 nM.

As to `CCc1c[nH]c2ncnc(Nc3cc4cn[nH]c4cn3)c12` [Example 6, N-(5-Ethyl-7H-pyrrolo[2,3-d]pyrimidin-4-yl)-1H-pyrazolo[3,4-c]pyridin-5-amine], the half-inhibitory concentration (IC50) was found to be 7.3 nM.

In turn, `C[C@@H]1CN(C(=O)[C@H]2CCc3c(sc4ncnc(Nc5cc6cn[nH]c6cn5)c34)C2)C[C@H](C)O1` [Example 89, [(2R,6S)-2,6-Dimethylmorpholin-4-yl][(7S)-4-(1H-pyrazolo[3,4-c]pyridin-5-ylamino)-5,6,7,8-tetrahydro[1]benzothieno[2,3-d]pyrimidin-7-yl]methanone] registered an IC50 of 5.9 nM.

On to `COc1nc2[nH]ncc2cc1Nc1ncnc2sc3c(c12)CC[C@H](C(=O)N1C[C@@H](C)O[C@@H](C)C1)C3` [Example 36, [(2R,6S)-2,6-Dimethylmorpholin-4-yl]{(7S)-4-[(6-methoxy-1H-pyrazolo[3,4-b]pyridin-5-yl)amino]-5,6,7,8-tetrahydro[1]benzothieno[2,3-d]pyrimidin-7-yl}methanone], for which the midpoint of inhibition, the IC50, lay at 0.8 nM.
